# Measurements as given in US12630528B2, “Amino aryl derivative useful as diacylglycerol acyltransferase 2 inhibitor and use thereof” (LG CHEM, LTD., priority 2019, dated 2026).
# Target: T1, human DGAT2 (Homo sapiens, UniProt Q96PD7)
# T1 construct: FLAG (DYKDDDDK); made in house; host or cells: Sf-21 insect cells (BacPAK baculovirus system); membrane fraction used
# T1 sequence (Q96PD7 1-388): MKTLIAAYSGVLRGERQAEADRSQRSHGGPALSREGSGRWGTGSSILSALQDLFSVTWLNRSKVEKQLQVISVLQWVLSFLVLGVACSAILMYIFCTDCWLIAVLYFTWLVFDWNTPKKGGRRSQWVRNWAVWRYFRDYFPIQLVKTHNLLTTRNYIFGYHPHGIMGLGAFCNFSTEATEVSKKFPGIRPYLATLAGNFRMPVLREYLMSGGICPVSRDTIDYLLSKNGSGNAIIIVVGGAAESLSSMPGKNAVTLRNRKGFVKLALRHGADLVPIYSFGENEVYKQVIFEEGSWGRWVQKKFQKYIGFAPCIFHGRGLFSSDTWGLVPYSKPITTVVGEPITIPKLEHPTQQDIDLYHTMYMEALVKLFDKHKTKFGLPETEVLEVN
# Assay: DGAT2 enzyme activity inhibition, Phospholipid FlashPlate SPA
# Format: biochemical
# Settings: recombinant human DGAT2 membrane protein from Sf-21 cells; inhibition of [14C]-TG production; 37° C.
# Description: In order to prepare the pBacPAK9-DGAT2, which is DGAT2 expression vector, the human DGAT2 gene amplified by polymerase chain reaction (PCR) was cloned into the EcoR1 and Xho1 sites of the pBacPAK9 (clonctech) vector. The nucleotide sequence of the primers used in PCR was the forward primer 5′ […] (SEQ. ID. NO: 2). The composition of the reaction solution was to contain 50 ng of cDNA clone (OriGene), 200 μM of dATP, dCTP, dTTP, dGTP, 200 nM of each primer, 1 unit of Tag DNA Polymerase (Toyobo), 1×PCR buffer, and the final volume was adjusted to 20 μl. The reaction conditions were denatured at 95° C. for 5 minutes, followed by 30 times of 94° C. for 20 seconds, 60° C. for 20 seconds, and 72° C. for 90 seconds, followed by further reaction at 72° C. for 7 minutes.
# Recombinant human DGAT2 protein was expressed in Sf-21 cells, which are insect cells, by using the BacPack baculovirus expression system (Clontech). The brief manufacturing process is as follows. First, the pBacPAK9-DGAT2 expression vector was transfected with BacPAK6 virus DNA (Bsu36I digest) into sf21 cells using Bacfectin to prepare a recombinant DGAT2 expressing baculovirus. The thus prepared baculovirus was infected with Sf-21 cells at 10 MOI (multiplicity of infection), and after 72 hours, infected insect cells were collected and membrane proteins were isolated. For membrane protein separation, the cell pellet was dissolved in a sucrose solution containing 250 mM sucrose, 10 mM Tris (pH 7.4), and 1 mM ethylenediamine-tetraacetic acid (EDTA), and then homogenized by using a dounce homogenizer, and the supernatant was taken by centrifuging at 600×g for 15 minutes, and centrifuged at 100,000×g for 1 hour to discard the supernatant, and the remaining pellet was resuspended in 20 mM HEPES buffer (pH 7.4). The prepared DGAT2 overexpressing membrane protein was dispensed in 100 μl and stored at −80° C. until use. Protein concentration was quantified by using the BCA Protein Assay Kit (Thermo Scientific).
# In vitro DGAT2 analysis was performed using a Phospholipid Flash Plate (PerkinElmer) based on the principle of SPA (Scintilation Proximity Assay). First, DGAT2 inhibition compounds serially diluted 5 times from 3 nM to 10 μM (final concentration, 1% DMSO) were mixed in a buffer solution containing 2 μg DGAT2-membrane protein and 20 mM HEPES, 20 mM MgCl2, 1 mg/mL BSA, 50 μM 1,2 sn-oleoyl glycerol (Sigma), put in a 96-well flash plate (FlashPlate) and reacted at 37° C. for 20 minutes, and then 1 μM [14C] ole oil CoA (PerkinElmer, NEC651050UC) was added to be a final volume of 100 μL and further reacted at 37° C. for 15 minutes. After the enzymatic reaction was completed, 100 μL of isopropanol was added, the plate was sealed with a film, and the plate was shaken slowly in a plate shaker. The next day, the amplified scintillation signal (cpm) in Topcounter (Packard) was measured to measure the degree of production of [14C]-labeled triacyl glycerol (TG) as a reaction product. The measured value when the compound was not treated was used as a positive control, and the measured value of the compound treated group was calculated as a relative % to measure the inhibition effect of the compound on TG production.
row,SMILES,IC50 [µM]
1,"CCOc1ccccc1O[C@@H]1CCCN(c2cncc(Nc3ccccn3)n2)C1 [Example 31, (R)-6-(3-(2-ethoxyphenoxy)piperidin-1-yl)-N-(pyridin-2-yl)pyrazin-2-amine]",0.13
2,"CCOc1ccccc1O[C@@H]1CCCN(c2cncc(Nc3ccc(C(=O)O)cn3)n2)C1 [Example 32, (R)-6-((6-(3-(2-ethoxyphenoxy)piperidin-1-yl)pyrazin-2-yl)amino)nicotinic Acid]",> 10
3,"CCOc1ccccc1O[C@@H]1CCCN(c2cncc(Nc3cc(C(=O)O)ccn3)n2)C1 [Example 33, (R)-2-((6-(3-(2-ethoxyphenoxy)piperidin-1-yl)pyrazin-2-yl)amino)isonicotinic Acid]",> 10
4,"CCOc1ccccc1O[C@@H]1CCCN(c2cncc(Nc3ncccc3C(=O)O)n2)C1 [Example 34, (R)-2-((6-(3-(2-ethoxyphenoxy)piperidin-1-yl)pyrazin-2-yl)amino)nicotinic Acid]",> 10
5,"CCOc1ccccc1O[C@@H]1CCCN(c2cncc(Nc3cc(C(C)(C)C(=O)O)ccn3)n2)C1 [Example 35, (R)-2-(2-((6-(3-(2-ethoxyphenoxy)piperidin-1-yl)pyrazin-2-yl)amino)pyridin-4-yl)-2-methylpropanoic Acid]",0.44
6,"CCOc1ccccc1O[C@@H]1CCCN(c2cncc(Nc3ccc(CC(=O)O)cn3)n2)C1 [Example 36, (R)-2-(6-((6-(3-(2-ethoxyphenoxy)piperidin-1-yl)pyrazin-2-yl)amino)pyridin-3-yl)acetic Acid]",> 10
7,"CCOc1ccccc1O[C@@H]1CCCN(c2cncc(Nc3ccc(/C=C/C(=O)O)cn3)n2)C1 [Example 37, (R,E)-3-(6-((6-(3-(2-ethoxyphenoxy)piperidin-1-yl)pyrazin-2-yl)amino)pyridin-3-yl)acrylic Acid]",> 10
8,"CCOc1ccccc1O[C@@H]1CCCN(c2cncc(Nc3ccc(CCC(=O)O)cn3)n2)C1 [Example 38, (R)-3-(6-((6-(3-(2-ethoxyphenoxy)piperidin-1-yl)pyrazin-2-yl)amino)pyridin-3-yl)propanoic Acid]",> 10
9,"CCOc1ccccc1O[C@@H]1CCCN(c2cncc(Nc3cc(CC(C)(C)C(=O)O)ccn3)n2)C1 [Example 39, (R)-3-(2-((6-(3-(2-ethoxyphenoxy)piperidin-1-yl)pyrazin-2-yl)amino)pyridin-4-yl)-2,2-dimethylpropanoic Acid]",2.7
10,"CCOc1ccccc1O[C@@H]1CCCN(c2cncc(Nc3ccc(-c4ccccc4)cn3)n2)C1 [Example 40, (R)-6-(3-(2-ethoxyphenoxy)piperidin-1-yl)-N-(5-phenylpyridin-2-yl)pyrazin-2-amine]",1.7
11,"CCOc1ccccc1O[C@@H]1CCCN(c2cncc(Nc3cc(-c4ccccc4)ccn3)n2)C1 [Example 41, (R)-6-(3-(2-ethoxyphenoxy)piperidin-1-yl)-N-(4-phenylpyridin-2-yl)pyrazin-2-amine]",0.6
12,"CCOc1ccccc1O[C@@H]1CCCN(c2cncc(Nc3cc(-c4cccc(C(C)(C)C(=O)O)c4)ccn3)n2)C1 [Example 42, (R)-2-(3-(2-((6-(3-(2-ethoxyphenoxy)piperidin-1-yl)pyrazin-2-yl)amino)pyridin-4-yl)phenyl)-2-methylpropanoic Acid]",3.7
13,"CCOc1ccccc1O[C@@H]1CCCN(c2cncc(Nc3cc(-c4ccc(C(C)(C)C(=O)O)cc4)ccn3)n2)C1 [Example 43, (R)-2-(4-(2-((6-(3-(2-ethoxyphenoxy)piperidin-1-yl)pyrazin-2-yl)amino)pyridin-4-yl)phenyl)-2-methylpropanoic Acid]",3.1
14,"CCOc1ccccc1O[C@@H]1CCCN(c2cncc(Nc3cc(-c4cccc(CC(C)(C)C(=O)O)c4)ccn3)n2)C1 [Example 44, (R)-3-(3-(2-((6-(3-(2-ethoxyphenoxy)piperidin-1-yl)pyrazin-2-yl)amino)pyridin-4-yl)phenyl)-2,2-dimethylpropanoic Acid]",4
15,"CCOc1ccccc1O[C@@H]1CCCN(c2cncc(Nc3cc(-c4ccc(CC(C)(C)C(=O)O)cc4)ccn3)n2)C1 [Example 45, (R)-3-(4-(2-((6-(3-(2-ethoxyphenoxy)piperidin-1-yl)pyrazin-2-yl)amino)pyridin-4-yl)phenyl)-2,2-dimethylpropanoic Acid]",0.77
16,"CCOc1ccccc1O[C@@H]1CCCN(c2cncc(Nc3cc(-c4cccc(CCC(=O)O)c4)ccn3)n2)C1 [Example 46, (R)-3-(3-(2-((6-(3-(2-ethoxyphenoxy)piperidin-1-yl)pyrazin-2-yl)amino)pyridin-4-yl)phenyl)propanoic Acid]",1.8
17,"CCOc1ccccc1O[C@@H]1CCCN(c2cncc(Nc3cncc(-c4cccc(CC(C)(C)C(=O)O)c4)c3)n2)C1 [Example 47, (R)-3-(3-(5-((6-(3-(2-ethoxyphenoxy)piperidin-1-yl)pyrazin-2-yl)amino)pyridin-3-yl)phenyl)-2,2-dimethylpropanoic Acid]",> 10
18,"CCOc1ccccc1O[C@@H]1CCCN(c2cncc(Nc3ccc(-c4cccc(CC(C)(C)C(=O)O)c4)nc3)n2)C1 [Example 48, (R)-3-(3-(5-((6-(3-(2-ethoxyphenoxy)piperidin-1-yl)pyrazin-2-yl)amino)pyridin-2-yl)phenyl)-2,2-dimethylpropanoic Acid]",1.8
19,CCOc1ccccc1O[C@@H]1CCCN(c2cncc(Nc3ccc(C(C)(C)C(=O)O)cn3)n2)C1 [Example 49],> 10
20,"CCOc1ccccc1O[C@@H]1CCCN(c2cncc(Nc3cccc(C(C)(C)C(=O)O)n3)n2)C1 [Example 50, (R)-2-(6-((6-(3-(2-ethoxyphenoxy)piperidin-1-yl)pyrazin-2-yl)amino)pyridin-2-yl)-2-methylpropanoic Acid]",7.2
21,"CCOc1ccccc1O[C@@H]1CCCN(c2cncc(Nc3cccc(CC(C)(C)C(=O)O)n3)n2)C1 [Example 51, (R)-3-(6-((6-(3-(2-ethoxyphenoxy)piperidin-1-yl)pyrazin-2-yl)amino)pyridin-2-yl)-2,2-dimethylpropanoic Acid]",1.9
22,"CCOc1ccccc1O[C@@H]1CCCN(c2cncc(Nc3cccc(N4CCC(C(=O)O)C4)n3)n2)C1 (stereo partly drawn) [Example 52, 1-(6-((6-((R)-3-(2-ethoxyphenoxy)piperidin-1-yl)pyrazin-2-yl)amino)pyridin-2-yl)pyrrolidine-3-carboxylic Acid]",0.73
23,"CCOc1ccccc1O[C@@H]1CCCN(c2cncc(Nc3cccc(N4CCC(C)(C(=O)O)C4)n3)n2)C1 (stereo partly drawn) [Example 53, 1-(6-((6-((R)-3-(2-ethoxyphenoxy)piperidin-1-yl)pyrazin-2-yl)amino)pyridin-2-yl)-3-methylpyrrolidine-3-carboxylic Acid]",0.51
24,"CCOc1ccccc1O[C@@H]1CCCN(c2cncc(Nc3cccc(N4CCCC(C(=O)O)C4)n3)n2)C1 (stereo partly drawn) [Example 54, 1-(6-((6-((R)-3-(2-ethoxyphenoxy)piperidin-1-yl)pyrazin-2-yl)amino)pyridin-2-yl)piperidine-3-carboxylic Acid]",0.91
25,"CCOc1ccccc1O[C@@H]1CCCN(c2cncc(Nc3cccc(N4CCC[C@@H](C(=O)O)C4)n3)n2)C1 [Example 55, (R)-1-(6-((6-((R)-3-(2-ethoxyphenoxy)piperidin-1-yl)pyrazin-2-yl)amino)pyridin-2-yl)piperidine-3-carboxylic Acid]",0.86
